Data from US20240067631A1, “PYRAZOLE DERIVATIVES USEFUL AS NAMPT MODULATORS” (Cytokinetics, Inc., priority 2020, published 2024).

Target: human NAMPT (Homo sapiens (Human), UniProt P43490)
Assay: Human recombinant enzyme assay (NMN fluorescence biochemical assay)
Conditions: 6 nM human NAMPT, 60 min; for AC1.4 Human: concentration of compound that generates 40% higher activity over basal; for EC50: concentration that gives half-maximal activation
Procedure: Compounds described herein were assayed for their ability to stimulate the synthesis of nicotinamide mononucleotide (NMN) by the enzyme NAMPT. The human recombinant enzyme assay measures the activation of the enzyme activity by compounds using recombinant enzyme and substrates in a buffered cell-free system. The assay conditions closely mimic cellular environments. Dose responses were measured using an assay to detect the formation of nicotinamide mono-nucleotide. All experiments were performed in the 384-well format. Generally, 0.5 μL of DMSO containing varying concentrations of the test compound was mixed with 10 μL of the enzyme reagent solution. Enzyme reactions were initiated with the addition of 10 μL of a solution containing the substrates. The final assay conditions were as follows: 6 nM human NAMPT, 2.5 mM ATP, […] in 50 mM HEPES, pH 7.2, 1 mM DTT, 1 mM CHAPS 50 mM NaCl, 100 mM MgCl2. Following an incubation of 60 min at ambient temperature, 10 μL of 20% acetophenone in DMSO was added, followed by 10 μL of 2 M KOH and 40 μL of formic acid. The plates were read for fluorescence (Excitation/Emission=355 nm/460 nm) using an EnVision plate reader after 40 mins of incubation at ambient temperature. The potency measurements for compounds, are quantified and represented as AC1.4 (the concentration of compounds that generates 40% higher activity over basal) and EC50 (concentration of the compound that gives half-maximal activation).

Sequence of human NAMPT (P43490 whole entry): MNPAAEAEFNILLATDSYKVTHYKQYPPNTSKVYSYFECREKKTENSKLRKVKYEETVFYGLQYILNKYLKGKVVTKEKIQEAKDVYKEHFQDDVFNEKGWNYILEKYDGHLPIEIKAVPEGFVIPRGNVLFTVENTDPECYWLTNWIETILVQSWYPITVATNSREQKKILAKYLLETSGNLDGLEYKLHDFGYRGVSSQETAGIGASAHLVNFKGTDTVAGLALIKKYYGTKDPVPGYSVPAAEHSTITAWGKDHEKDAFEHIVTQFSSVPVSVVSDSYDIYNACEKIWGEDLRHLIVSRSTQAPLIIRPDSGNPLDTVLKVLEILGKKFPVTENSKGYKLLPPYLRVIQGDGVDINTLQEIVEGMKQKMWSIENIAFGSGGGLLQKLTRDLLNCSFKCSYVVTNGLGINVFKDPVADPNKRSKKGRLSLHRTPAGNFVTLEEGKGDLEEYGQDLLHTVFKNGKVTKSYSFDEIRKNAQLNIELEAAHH

Structure (SMILES) | AC1.4 Human [µM] | EC50 [µM]
Cc1nc(C(N)=O)nc(N(CCc2ccccc2)CCc2cn[nH]c2)c1C [Compound 1, 4-((2-(1H-pyrazol-4-yl)ethyl)(phenethyl)amino)-5,6-dimethylpyrimidine-2-carboxamide] | 0.003 | 0.131
Cc1nc(C(=O)NCC2(c3ccccc3)COC2)nc(NCCc2cn[nH]c2)c1C [Compound 94, 4-((2-(1H-pyrazol-4-yl)ethyl)amino)-5,6-dimethyl-N-((3-phenyloxetan-3-yl)methyl)pyrimidine-2-carboxamide] | 1.271 | 8.13
Cc1nc(C(=O)N[C@H](C)c2ccncc2)nc(NCCc2cn[nH]c2)c1C [Compound 95, (R)-4-((2-(1H-pyrazol-4-yl)ethyl)amino)-5,6-dimethyl-N-(1-(pyridin-4-yl)ethyl)pyrimidine-2-carboxamide] | 1.2975 | 11
Cc1nc(C(=O)N[C@H](C)C2CCCCC2)nc(NCCc2cn[nH]c2)c1C [Compound 116, (R)-4-((2-(1H-pyrazol-4-yl)ethyl)amino)-N-(1-cyclohexylethyl)-5,6-dimethylpyrimidine-2-carboxamide] | 2.9705 | 29.6
Cc1nc(C(=O)N[C@H](C)c2cccnc2)nc(NCCc2cn[nH]c2)c1C [Compound 127, (R)-4-((2-(1H-pyrazol-4-yl)ethyl)amino)-5,6-dimethyl-N-(1-(pyridin-3-yl)ethyl)pyrimidine-2-carboxamide] | 32.9385 | 60

Further lines, results first:

AC1.4 Human [µM] | EC50 [µM] | Structure (SMILES)
3.794 | 34.5 | Cc1nc(C(=O)N[C@@H](C)c2ccccn2)nc(NCCc2cn[nH]c2)c1C [Compound 137, (S)-4-((2-(1H-pyrazol-4-yl)ethyl)amino)-5,6-dimethyl-N-(1-(pyridin-2-yl)ethyl)pyrimidine-2-carboxamide]
0.265 | 2.92 | Cc1nc(C(=O)N2C[C@H](c3ccccc3)[C@@H](O)C2)nc(NCCc2cn[nH]c2)c1C [Compound 42, (4-((2-(1H-pyraazol-4-yl)ethyl)amino)-5,6-dimethylpyrimidin-2-yl)((3R,4S)-3-hydroxy-4-phenylpyrrolidin-1-yl)methanone]
0.4315 | 2.29 | Cc1nc(C(=O)N2CCOC[C@@H]2c2ccccc2)nc(NCCc2cn[nH]c2)c1C [Compound 63, (S)-(4-((2-(1H-pyrazol-4-yl)ethyl)amino)-5,6-dimethylpyrimidin-2-yl)(3-phenylmorpholino)methanone]
1.17 | 9.24 | Cc1nc(C(=O)NC(C)c2ccon2)nc(NCCc2cn[nH]c2)c1C (centres unmarked) [Compound 90, 4-((2-(1H-pyrazol-4-yl)ethyl)amino)-N-(1-(isoxazol-3-yl)ethyl)-5,6-dimethylpyrimidine-2-carboxamide]
0.563 | 1.64 | COc1cccc(C(C)NC(=O)c2nc(C)c(C)c(NCCc3cn[nH]c3)n2)n1 (centres unmarked) [Compound 68, 4-((2-(1H-pyrazol-4-yl)ethyl)amino)-N-(1-(6-methoxypyridin-2-yl)ethyl)-5,6-dimethylpyrimidine-2-carboxamide]
1.6375 | 21.5 | Cc1nc(C(=O)NC(C)c2cncs2)nc(NCCc2cn[nH]c2)c1C (centres unmarked) [Compound 103, 4-((2-(1H-pyrazol-4-yl)ethyl)amino)-5,6-dimethyl-N-(1-(thiazol-5-yl)ethyl)pyrimidine-2-carboxamide]
3.8305 | 20.3 | Cc1nc(C(=O)NCCS(=O)(=O)Cc2ccccc2)nc(NCCc2cn[nH]c2)c1C [Compound 141, 4-((2-(1H-pyrazol-4-yl)ethyl)amino)-N-(2-(benzylsulfonyl)ethyl)-5,6-dimethylpyrimidine-2-carboxamide]
2.384 | 11.8 | Cc1nc(C(=O)N[C@H](C)c2ccc(F)cn2)nc(NCCc2cn[nH]c2)c1C [Compound 118, (R)-4-((2-(1H-pyrazol-4-yl)ethyl)amino)-N-(1-(5-fluoropyridin-2-yl)ethyl)-5,6-dimethylpyrimidine-2-carboxamide]
